The nature of the data set: accelerated stability test. To be noted: compared with the known crystalline forms of R-(+)-α-lipoic acid. The format is physicochemical. The source says: Since it is a pharmaceutically active molecule which is notoriously very reactive and tends to polymerise, improved stability obviously represents a very important quality.

SMILES strings stand for the structures.

As to `O=C(O)CCCCC1CCSS1` (stereo not drawn) [new crystalline form, R-(+)-α-lipoic acid], the “stability of the crystalline form” value is recorded as “more stable than the known crystalline forms”.

The values above are taken from patent US20140309293A1, “CRYSTALLINE FORM” (L[…] INTE[…].P. A., priority 2011, published 2014).
